Source: US5470858A, “Derivatives of (hetero)aromatic ethers and thioethers having antihyperlipidemic activity, process for their preparation and pharmaceutical compositions containing them” (Pierrel SpA, priority 1991, dated 1995)
Where a name gives a salt, the structure may show the parent alone. Read-outs that look alike come from different tables or passages of the source.

Key:
Type in all cases: in vivo
[1] = test system: hyperlipaemic SD male rats; test: Hypolipemizing activity, 5 days experimental model, modified Nath diet; conditions: rat, oral; for change in vivo at 100 mg/kg/day / change in vivo at 300 mg/kg/day: 120 h; for Hepatic index (percent variation vs hyperlipaemic controls): index = (Liver weight/body weight) × 100
Procedure: The hypolipemizing activity of the compounds of the present invention has been evaluated in the rat using SD male animals (Charles River) of an initial weight of 150 g, housed in controlled environment at a temperature of 21°±1° C., relative humidity 60% and a 12 hours light/dark cycle.
Experimental models have been used in which the animals are rendered hiperlipaemic by "ad libitum" food administration with a modified Nath diet (Atherosclerosis 30, 1978, pag. 45-46) having the following composition: […]
hydrogenated coconut oil
In the first model the animals have been fed with this diet for 5 consecutive days, during which they received the pharmacological treatment once a day by oral route and were sacrificed 2 hours after the last administration.
At the time of the sacrifice the blood was removed, for the lipid determination, as well as the liver the weight of which was the index of a possible hepatomegaly.
By this experimental model the concentration of the serum lipids attained very high values which, in the control group, was four times the normal values for the total cholesterol and the triglycerides.
The determination of the triglycerides, of the total cholesterol and of the cholesterol associated to the HDL has been effected by means of a commercial enzymatic kit. The concentration of the cholesterol associated to VLDL+LDL has been determined by difference between total cholesterol and HDL.
The results obtained in the experimental model of the 5 days duration for some compounds representative of the invention are reported in the following table 1. The data are expressed as percent variation with respect to the hyperlipaemic controls to which carboxymethylcellulose as 0.5% in water at the dose of 10 ml/kg/day by oral route was administered. The same vehicle was used for the suspension of the tested compounds at the doses of 100 and 300 mg/kg/day by oral route.

[2] = test system: liver; test: Hepatic tolerability, 15 days at high dose: hepatic index; conditions: rat, 200 mg/kg, standard; absolute values; solvent 5,4
Procedure: (§1) The hypolipemizing activity of the compounds of the present invention has been evaluated in the rat using SD male animals (Charles River) of an initial weight of 150 g, housed in controlled environment at a temperature of 21°±1° C., relative humidity 60% and a 12 hours light/dark cycle. The animals were fasted with this diet for 15 days consecutively, during which they received the pharmacological treatment once a day by oral route and were sacrificed 24 hours after the last administration. At the sacrifice time the blood was removed for the lipid determination and the liver was removed as well to be weighed and used for the evaluation of the catalase enzyme as the index of the peroxysomes proliferation and thus of hepatotoxicity. In order to evaluate the hepatic tolerability of the compounds of interest they have been administered for 15 days at a high dose (300 mg/kg/day) according to the same conditions of the previous experiment.24 hours after the last treatment the animals have been sacrificed, and the liver has been removed and stored at -20° C. up to the time of dosing the activity of the catalase enzyme (Methods of enzymatic analysis, vol.2, pag. 673, 1974 edit. H. U. Bergmeyer, Verlag Chemie International).

[3] = test system: catalase enzyme; test: Hepatic tolerability, 15 days at high dose: catalase enzyme activity in liver (index of peroxysomes proliferation); conditions: rat liver, 200 mg/kg, standard; absolute values; solvent 539,8
Procedure: as §1

[4] = 100 mg/kg/day, by difference between total and HDL, read-out: Cholesterol VLDL + LDL (percent variation vs hyperlipaemic controls)
[5] = 100 mg/kg/day, read-out: Cholesterol HDL (percent variation vs hyperlipaemic controls)
[6] = 100 mg/kg/day, read-out: Total Cholesterol (percent variation vs hyperlipaemic controls)
[7] = 100 mg/kg/day, read-out: Triglycerides (percent variation vs hyperlipaemic controls)
[8] = 300 mg/kg/day, by difference between total and HDL, read-out: Cholesterol VLDL + LDL (percent variation vs hyperlipaemic controls)
[9] = 300 mg/kg/day, read-out: Cholesterol HDL (percent variation vs hyperlipaemic controls)
[10] = 300 mg/kg/day, read-out: Total Cholesterol (percent variation vs hyperlipaemic controls)
[11] = 300 mg/kg/day, read-out: Triglycerides (percent variation vs hyperlipaemic controls)

Compound	change in vivo at 100 mg/kg/day [1, 4]	change in vivo at 100 mg/kg/day [1, 5]	change in vivo at 100 mg/kg/day [1, 6]	change in vivo at 100 mg/kg/day [1, 7]	change in vivo at 300 mg/kg/day [1, 8]	change in vivo at 300 mg/kg/day [1, 9]	change in vivo at 300 mg/kg/day [1, 10]	change in vivo at 300 mg/kg/day [1, 11]	Hepatic index (percent variation vs hyperlipaemic controls) ([1]; 100 mg/kg/day)	Hepatic index (percent variation vs hyperlipaemic controls) ([1]; 300 mg/kg/day)	Hepatic index (Liver weight/body weight) × 100 [2]	Catalase enzyme activity [3]
CC(C)COC(=O)c1ccc(OCC(=O)CSc2nc3ccccc3o2)cc1 [Example 1, 2-[3-[(p-isobutyloxycarbonyl)-phenoxyl]-2-oxo-propylthio]-benzoxazole]	-6.1%	2.6%	-5.7%	-27.6%	-6.4%	17.9%	-5.2%	-18.4%	-8,5%	-2,5%		
CC(C)COC(=O)c1ccc(OCCCSc2nc3c(N)ncnc3n2[C@@H]2O[C@H](CO)[C@@H](O)[C@H]2O)cc1 [Example 25]	-10%	-1.2%	-9.7%	-3.3%	-4.8%	-7.1%	-5.2%	15.7%	-1,1%	-2,8%		
CCOC(=O)C(C)(C)Oc1ccc(Cl)cc1 [Clofibrate, reference compound]											7,0	680,9 umoli/min/mg proteins
CC(C)COC(=O)c1ccc(OCC(=O)CSc2nc3c([nH]2)c(=O)n(C)c(=O)n3C)cc1 [Example 3]	-1.3%	11.7%	-1.1%	-6.5%	-10.7%	3.5%	-10.5%	-5.8%	+3,2%	-1,5%		
CC(C)COC(=O)c1ccc(OCC(O)CSc2ncccn2)cc1 (centres unmarked) [Example 5, 2-[3-[(p-isobutyloxycarbonyl)-phenoxy]-2-hydroxy-propylthio]-pirimidine hydrochloride]	24%	-17.7%	22.3%	13.8%	-20.7%	-8.5%	-20.3%	-14.9%	-4,1%	-5,7%		
CC(C)COC(=O)c1ccc(OCCSc2nc3c(N)ncnc3n2[C@@H]2O[C@H](CO)[C@@H](O)[C@H]2O)cc1 [Example 27]	-14.6%	0.1%	-13.6%	-0.4%	-19.3%	5.7%	-18.4%	-10.2%	+0,8%	+0,7%		
CC(C)COC(=O)c1ccc(OCC(O)CSc2nc3cc4ccccc4cc3o2)cc1 (centres unmarked) [Example 15]	17.6%	0.8%	16.5%	5%	-9.8%	13.4%	-8.2%	5.2%	-2,6%	+0,6%		
CCOc1ccc2nc(SCC(O)COc3ccc(C(=O)OCC(C)C)cc3)sc2c1 (centres unmarked) [Example 9, 2-[3-[(p-isobutyloxycarbonyl)-phenoxy]-2-hydroxy-propylthio]6-ethoxy-benzothiazole]	0.9%	2.4%	1%	0.9%	-7%	-0.2%	-6.5%	2.8%	-0,8%	-1,2%		
CC(C)COC(=O)c1ccc(OCC(O)CSc2nccn2C)cc1 (centres unmarked) [Example 4, 1-methyl-2-[3-[(p-isobutyloxycarbonyl)-phenoxy]-2-hydroxy-propylthio]-imidazole hydrochloride]	9.2%	-3.4%	7.7%	-5.9%	-4%	8.2%	-2.6%	0.2%	+2,2%	+4,3%		
CC(C)COC(=O)c1ccc(OCC(O)CSc2nc3ccccc3[nH]2)cc1 (centres unmarked) [Example 18]	0.2%	3.2%	1%	-19%	9%	6.5%	9.1%	-13.1%	+3,8%	+3,9%		
CC(C)COC(=O)c1ccc(OCC(CSc2nc3ccccc3o2)OC(=O)c2cccnc2)cc1 (centres unmarked) [Example 12]	11.5%	12.5%	11.6%	-19%	-8.9%	8.6%	-7.8%	-39.4%	-3,9%	-10,8%		
CC(C)COC(=O)c1ccc(OCC(CSc2nc3c(N)ncnc3n2[C@@H]2O[C@H](CO)[C@@H](O)[C@H]2O)=NO)cc1 [Example 31]	-6.6%	3.2%	-0.3%	14.7%	-25.7%	-5.1%	-24.7%	-0.7%	+3,6%	-1,5%		
CC(C)COC(=O)c1ccc(OCC(O)CSc2nc3cc(Cl)ccc3s2)cc1 (centres unmarked) [Example 10, 2-[3-[(p-isobutyloxycarbonyl)-phenoxy]-2-hydroxy-propylthio]5-chloro-benzothiazole]	-20.4%	5.5%	-18.6%	-8.5%	-26.4%	17.3%	-23.3%	-26.3%	-2,2%	-0,6%		
